{"source": "patent US20250221966A1", "about": "“RXFP1 AGONISTS” (BRISTOL-MYERS SQUIBB COMPANY, priority 2021, published 2025)"}
{"target": "T1, human RXFP1 (Homo sapiens, UniProt Q9HBX9)", "T1 construct": "expressed in transfected cells", "T1 sequence (Q9HBX9 1-757)": "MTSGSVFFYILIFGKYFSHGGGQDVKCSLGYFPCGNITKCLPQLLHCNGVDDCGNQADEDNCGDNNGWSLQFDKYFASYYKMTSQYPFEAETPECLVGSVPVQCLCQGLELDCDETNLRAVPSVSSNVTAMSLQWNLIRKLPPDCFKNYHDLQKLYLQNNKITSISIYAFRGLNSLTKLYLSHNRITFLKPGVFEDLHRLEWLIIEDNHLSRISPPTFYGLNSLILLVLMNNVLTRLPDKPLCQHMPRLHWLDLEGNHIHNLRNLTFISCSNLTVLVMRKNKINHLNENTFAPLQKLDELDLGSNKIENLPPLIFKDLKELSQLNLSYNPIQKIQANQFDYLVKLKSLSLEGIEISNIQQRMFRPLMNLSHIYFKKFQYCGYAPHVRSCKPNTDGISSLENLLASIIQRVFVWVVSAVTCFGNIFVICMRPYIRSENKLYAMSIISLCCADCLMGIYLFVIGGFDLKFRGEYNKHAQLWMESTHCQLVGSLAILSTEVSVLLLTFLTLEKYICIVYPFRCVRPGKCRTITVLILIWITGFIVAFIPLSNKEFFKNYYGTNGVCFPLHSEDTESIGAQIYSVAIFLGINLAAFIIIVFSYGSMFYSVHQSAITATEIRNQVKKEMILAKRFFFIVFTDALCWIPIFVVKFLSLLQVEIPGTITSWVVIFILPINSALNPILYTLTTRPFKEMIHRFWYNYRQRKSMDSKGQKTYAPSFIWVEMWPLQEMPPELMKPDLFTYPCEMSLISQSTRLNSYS", "experiment": "RXFP1 cAMP assay (hRXFP1 HEK293 cAMP assay, HTRF)", "assay_type": "cell-based", "settings": "HEK293 cells stably expressing human RXFP1, 30 min at room temperature, read-out: cAMP hRXFP1 HEK293 Assay EC50", "outline": "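Potency and activity come from a four-parameter logistic fit of cAMP against compound concentration, tested from 0.010 nM up to 50 μM. The assay uses HEK293 cells stably expressing human RXFP1, incubated 30 min at ambient temperature with phosphodiesterase inhibitor IBMX present.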", "units": {"EC50": "nM"}}
{"smiles": "COc1ccc(-c2cccc3c2CC(=O)N3)cc1C(=O)N[C@H]1[C@@H](C(=O)Nc2ccc(F)c(C(F)(F)F)c2)[C@H]2CC[C@@H]1/C2=C\\C1CC1", "note": "[compound 890]", "EC50": 2.4}
{"smiles": "COc1ccc(C2=NOC3C(O)CCC23)cc1C(=O)N[C@H]1[C@@H](C(=O)Nc2ccc(F)c(C(F)(F)F)c2)[C@H]2CC[C@@H]1/C2=C\\C1CC1", "note": "(single isomer, unassigned) [compound 706]", "EC50": 1300}
{"smiles": "COc1ccc(C2=NOC3COCC23)c(F)c1C(=O)N[C@H]1[C@@H](C(=O)Nc2ccc(F)c(C(F)(F)F)c2)[C@H]2CC[C@@H]1/C2=C\\C1CC1", "note": "(single isomer, unassigned) [compound 693]", "EC50": 791}
{"smiles": "COc1ccc(-c2cc(C(=O)O)ccc2F)cc1C(=O)N[C@@H]1C2CCC(/C2=C/C2CC2)[C@@H]1C(=O)NC1CCOCC1", "note": "(stereo partly drawn) [compound 204]", "EC50": 3200}
{"smiles": "COc1ccc(C2=NOC3COCC23)cc1C(=O)N[C@H]1[C@@H](C(=O)NC2CCOC(C)(C)C2)[C@H]2CC[C@@H]1/C2=C\\C1CC1", "note": "(single isomer, unassigned) [compound 679]", "EC50": 563}
{"smiles": "COc1ccc(N2CCCC(CO)C2)cc1C(=O)NC1C2CCC(/C2=C/C(F)(F)F)C1C(=O)Nc1ccc(F)c(C(F)(F)F)c1", "note": "(stereo in doubt) [Example 329, (1R,2R,3R,4R,Z)—N-(4-fluoro-3-(trifluoromethyl)phenyl)-3-(5-(3-(hydroxymethyl)piperidin-1-yl)-2-methoxybenzamido)-7-(2,2,2-trifluoroethylidene)bicyclo[2.2.1]heptane-2-carboxamide]", "EC50": 4810}
{"smiles": "COc1c(F)cc(C2=NOC3CC(CO)CC23)cc1C(=O)N[C@H]1[C@@H](C(=O)N[C@H](C)C2(C)CC2)[C@H]2CC[C@@H]1/C2=C\\C1CCCC1", "note": "(stereo partly drawn) [compound 811]", "EC50": 0.6}
{"smiles": "CCc1cccc(/C=C2\\C3CCC2[C@H](C(=O)Nc2ccc(F)c(C(F)(F)F)c2)[C@@H]3NC(=O)c2cc(F)c(F)cc2OC)c1", "note": "(stereo partly drawn) [compound 29]", "EC50": 110}
{"smiles": "COc1ccc(-c2cc(C(=O)NS(=O)(=O)C3CC3)ccc2F)cc1C(=O)N[C@@H]1C2CCC(C2=C(C)C)[C@@H]1C(=O)Nc1ccc(F)c(C(F)(F)F)c1", "note": "(stereo partly drawn) [compound 157]", "EC50": 610}
{"smiles": "COc1ccc(-c2cncc(C(=O)O)c2)cc1C(=O)N[C@@H]1C2CCC(/C2=C/C(F)(F)F)[C@@H]1C(=O)Nc1ccc(F)c(C(F)(F)F)c1", "note": "(stereo partly drawn) [compound 288]", "EC50": 127}
{"smiles": "COc1ccc(-c2cccc(C3=NOC4CC(O)CC34)c2)cc1C(=O)N[C@H]1[C@@H](C(=O)Nc2ccc(F)c(C(F)(F)F)c2)[C@H]2CC[C@@H]1/C2=C\\C1CC1", "note": "(stereo partly drawn) [compound 901]", "EC50": 4.5}
{"smiles": "COc1ccc(C2=NO[C@@H]3CC[C@@H](O)[C@H]23)cc1C(=O)N[C@H]1[C@@H](C(=O)Nc2ccc(F)c(C(F)(F)F)c2)[C@H]2CC[C@@H]1/C2=C\\C1CC1", "note": "(single isomer, unassigned) [compound 655]", "EC50": 303}
{"smiles": "COc1ccc(-c2cc(C(=O)NS(C)(=O)=O)ccc2F)cc1C(=O)N[C@@H]1C2CCC(C2=C(C)C)[C@@H]1C(=O)Nc1ccc(F)c(C(F)(F)F)c1", "note": "(stereo partly drawn) [compound 131]", "EC50": 130}
{"smiles": "COc1ccc(N2CCCC(CO)C2)cc1C(=O)N[C@@H]1C2CCC(/C2=C/C2CC2)[C@@H]1C(=O)Nc1ccc(F)c(C(F)(F)F)c1", "note": "(single isomer, unassigned) [compound 704]", "EC50": 1300}
{"smiles": "COc1ccc(C2=NO[C@H]3COC[C@@H]23)cc1C(=O)N[C@H]1[C@@H](C(=O)Nc2ccc(F)c(C(F)(F)F)c2)[C@H]2CC[C@@H]1/C2=C\\CCC1CC1", "note": "[compound 839]", "EC50": 4.4}
{"smiles": "COc1ccc(-c2cc(C(F)(F)F)cnc2F)cc1C(=O)N[C@@H]1C2CCC(/C2=C/C2CC2)[C@@H]1C(=O)Nc1ccc(F)c(C(F)(F)F)c1", "note": "(stereo partly drawn) [compound 282]", "EC50": 25}
{"smiles": "COc1ccc(C2=NO[C@@H]3C[C@H](C(F)(F)F)CN23)cc1C(=O)N[C@H]1[C@@H](C(=O)Nc2ccc(F)c(C(F)(F)F)c2)[C@H]2CC[C@@H]1/C2=C\\C1CC1", "note": "[compound 847]", "EC50": 2.5}
{"smiles": "COc1c(F)cc(C2=NOC3CC(CO)CC23)cc1C(=O)N[C@H]1[C@@H](C(=O)NCC(C)(C)C)[C@H]2CC[C@@H]1/C2=C\\C1CC1", "note": "(stereo partly drawn) [compound 765]", "EC50": 2.5}
{"smiles": "COc1ccc(C2=NOC3CC(C(N)=O)CC23)cc1C(=O)N[C@H]1[C@@H](C(=O)Nc2ccc(F)c(C(F)(F)F)c2)[C@H]2CC[C@@H]1/C2=C\\C1CC1", "note": "(single isomer, unassigned) [compound 587]", "EC50": 80.8}
{"smiles": "COc1ccc(-c2ccc(C(=O)NCCN3CCOCC3)cc2F)cc1C(=O)N[C@@H]1C2CCC(/C2=C/c2ccccc2)[C@@H]1C(=O)Nc1ccc(F)c(C(F)(F)F)c1", "note": "(stereo partly drawn) [compound 198]", "EC50": 76}
{"smiles": "COc1ccc(C2=NOC3COCC23)cc1C(=O)N[C@H]1[C@@H](C(=O)NC2CCC(C(F)(F)F)C2)[C@H]2CC[C@@H]1/C2=C\\C1CC1", "note": "(single isomer, unassigned) [Example 629]", "EC50": 180}
{"smiles": "COc1ccc(C2=NO[C@H]3[C@@H]2CC[C@@H]3O)cc1C(=O)N[C@H]1[C@@H](C(=O)Nc2ccc(F)c(C(F)(F)F)c2)[C@H]2CC[C@@H]1/C2=C\\C1CC1", "note": "(single isomer, unassigned) [compound 574]", "EC50": 67.8}
{"smiles": "COc1c(F)cc(C2=NOC3CC(O)(C(F)(F)F)CC23)cc1C(=O)N[C@H]1[C@@H](C(=O)N[C@H](C)C2(C)CC2)[C@H]2CC[C@@H]1/C2=C\\c1cnc(C(F)(F)F)s1", "note": "(stereo partly drawn) [compound 917]", "EC50": 1.3}
{"smiles": "COc1cc(C2CC2)c(C2=NOC3COCC23)cc1C(=O)N[C@H]1[C@@H](C(=O)Nc2ccc(F)c(C(F)(F)F)c2)[C@H]2CC[C@@H]1/C2=C\\C1CC1", "note": "(single isomer, unassigned) [compound 695]", "EC50": 836}
{"smiles": "COc1cc(F)c(F)cc1C(=O)N[C@@H]1C2CCC(/C2=C/c2cc(C)cc(C)c2)[C@@H]1C(=O)Nc1ccc(F)c(C(F)(F)F)c1", "note": "(stereo partly drawn) [compound 60]", "EC50": 920}
{"smiles": "COc1ccc(N2CCCS2(=O)=O)cc1C(=O)N[C@@H]1C2CCC(/C2=C/C2CC2)[C@@H]1C(=O)Nc1ccc(F)c(C(F)(F)F)c1", "note": "(stereo partly drawn) [compound 372]", "EC50": 12}
{"smiles": "COCCOC1(C2CC(c3ccc(OC)c(C(=O)N[C@H]4[C@@H](C(=O)Nc5ccc(F)c(C(F)(F)F)c5)[C@H]5CC[C@@H]4/C5=C\\C4CC4)c3)=NO2)CC1", "note": "(single isomer, unassigned) [compound 687]", "EC50": 658}
{"smiles": "COc1cc(F)c(F)cc1C(=O)N[C@@H]1C2CCC(/C2=C/c2ccc3ccccc3c2)[C@@H]1C(=O)Nc1ccc(F)c(C(F)(F)F)c1", "note": "(stereo partly drawn) [compound 18]", "EC50": 630}
{"smiles": "COc1ccc(C2=NO[C@H]3C[C@H](CO)CN23)cc1C(=O)N[C@H]1[C@@H](C(=O)Nc2ccc(F)c(C(F)(F)F)c2)[C@H]2CC[C@@H]1/C2=C\\C1CCCC1", "note": "[compound 816]", "EC50": 1.6}
{"smiles": "COc1ccc(-c2cc([C@H](OC(=O)NC3CC3)C(F)(F)F)ccc2F)cc1C(=O)N[C@H]1[C@@H](C(=O)Nc2ccc(F)c(C(F)(F)F)c2)[C@H]2CC[C@@H]1/C2=C\\CCC(F)(F)F", "note": "[compound 928]", "EC50": 1.4}
{"smiles": "COc1ccc(C2=NO[C@H]3COC[C@@H]23)cc1C(=O)N[C@H]1[C@@H](C(=O)Nc2ccc(F)c(C(F)(F)F)c2)[C@H]2CC[C@@H]1/C2=C\\C1CCCC1", "note": "[compound 819]", "EC50": 2.3}
{"smiles": "COc1ccc(C2=NOC3COCC23)cc1C(=O)N[C@H]1[C@@H](C(=O)NCc2c(C)noc2C)[C@H]2CC[C@@H]1/C2=C\\C1CC1", "note": "(stereo partly drawn) [compound 673]", "EC50": 477}
{"smiles": "CONC(=O)OC(c1ccc(F)c(-c2ccc(OC)c(C(=O)N[C@@H]3C4CCC(/C4=C/C4CC4)[C@@H]3C(=O)Nc3ccc(F)c(C(F)(F)F)c3)c2)c1)C(F)(F)F", "note": "(stereo partly drawn) [compound 214]", "EC50": 2}
